Source: PubChem BioAssay AID330 (DTP/NCI, 2004)
Several values for one entry are separate records, joined by “and”; a condition that tells them apart may be missing. Identical values can stand only once. Inconclusive results and toxic doses are left out. The calls were made as follows: active = survival T/C of 150% or more; inactive = T/C below 125% in these data.

Test system: P388 leukemia ip, CD2F1 mice, survival T/C
Experiment: NCI In Vivo Anticancer Drug Screen. Data for tumor model P388 Leukemia (intraperitoneal) in CD2F1 (CDF1) mice
Settings: endpoint: median survival time, higher = longer survival
Method in brief: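 Mice carrying the transplanted tumor received test compound or vehicle. Survival was recorded in each group, and the value is the treated-group measurement divided by that of the vehicle-treated control group.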

[1] = dose: 12.5 mg/kg/injection, schedule: Q01DX009 (ip), vehicle: saline with Tween-80
[2] = dose: 25.0 mg/kg/injection, schedule: Q01DX009 (ip), vehicle: saline with Tween-80
[3] = dose: 50.0 mg/kg/injection, schedule: Q01DX009 (ip), vehicle: saline
[4] = dose: 100.0 mg/kg/injection, schedule: Q01DX009 (ip), vehicle: saline
[5] = dose: 50.0 mg/kg/injection, schedule: Q01DX005 (ip), vehicle: saline with Tween-80
[6] = dose: 100.0 mg/kg/injection, schedule: Q01DX005 (ip), vehicle: saline with Tween-80
[7] = dose: 200.0 mg/kg/injection, schedule: Q01DX005 (ip), vehicle: saline with Tween-80
[8] = dose: 200.0 mg/kg/injection, schedule: Q01DX009 (ip), vehicle: saline

Measured: T/C

Oc1ccc(C[n+]2ccccc2)cc1O
inactive: dose: 3.12 mg/kg/injection, schedule: Q01DX005 (ip), vehicle: saline 101 % of control and 97 % of control | dose: 6.25 mg/kg/injection, schedule: Q01DX005 (ip), vehicle: saline 102 % of control and 103 % of control | dose: 12.5 mg/kg/injection, schedule: Q01DX005 (ip), vehicle: saline 100 % of control and 105 % of control | dose: 25.0 mg/kg/injection, schedule: Q01DX005 (ip), vehicle: saline 92 % of control and 97 % of control

Nc1nc(N)c(-c2ccc(Cl)c(Cl)c2)c(COc2cccc(CNC(=O)c3cccc(S(=O)(=O)F)c3)c2)n1
inactive: dose: 100.0 mg/kg/injection, schedule: Q04DX003 (ip), vehicle: Klucel (hydroxypropylcellulose) (HPC) 110 % of control | dose: 400.0 mg/kg/injection, schedule: Q04DX003 (ip), vehicle: Klucel (hydroxypropylcellulose) (HPC) 120 % of control

COn1nnc2c([N+](=O)[O-])cccc21
inactive: [1] 100 % of control | [2] 94 % of control | dose: 50.0 mg/kg/injection, schedule: Q01DX009 (ip), vehicle: saline with Tween-80 98 % of control

CN(C)N=Nc1ccc(C(N)=O)cc1
inactive: dose: 12.5 mg/kg/injection, schedule: Q01DX009 (ip), vehicle: saline 101 % of control and 103 % of control and 93 % of control | dose: 25.0 mg/kg/injection, schedule: Q01DX009 (ip), vehicle: saline 98 % of control and 99 % of control and 100 % of control | [3] 98 % of control and 107 % of control and 91 % of control | [4] 111 % of control and 96 % of control

Clc1cccc2c(SCCCCCCCSc3c4ccccc4nc4c(Cl)cccc34)c3ccccc3nc12
inactive: dose: 60.0 mg/kg/injection, schedule: Q01DX005 (ip), vehicle: Klucel (hydroxypropylcellulose) (HPC) 93 % of control | dose: 120.0 mg/kg/injection, schedule: Q01DX005 (ip), vehicle: Klucel (hydroxypropylcellulose) (HPC) 91 % of control | dose: 240.0 mg/kg/injection, schedule: Q01DX005 (ip), vehicle: Klucel (hydroxypropylcellulose) (HPC) 90 % of control

C/C(N=NC(=S)N1CCCC1)=C1\C=CC=CN1O
inactive: [5] 106 % of control | [6] 103 % of control | [7] 112 % of control

COc1cc2c3cc1Oc1c(O)c(OC)cc4c1[C@H](Cc1ccc(O)c(c1)Oc1ccc(cc1)C[C@H]3N(C)CC2)N(C)CC4
inactive: dose: 37.5 mg/kg/injection, schedule: Q01DX009 (ip), vehicle: Klucel (hydroxypropylcellulose) (HPC) 98 % of control

O/N=C/c1cc(I)cc(I)c1O
inactive: [5] 90 % of control | [6] 99 % of control | [7] 99 % of control

CS(C)=O
inactive: dose: 93.75 mg/kg/injection, schedule: Q01DX009 (ip), vehicle: saline 109 % of control | dose: 187.5 mg/kg/injection, schedule: Q01DX009 (ip), vehicle: saline 107 % of control | dose: 375.0 mg/kg/injection, schedule: Q01DX009 (ip), vehicle: saline 98 % of control | dose: 750.0 mg/kg/injection, schedule: Q01DX009 (ip), vehicle: saline 109 % of control | dose: 1500.0 mg/kg/injection, schedule: Q01DX009 (ip), vehicle: saline 104 % of control | dose: 1.5 grams/kg/injection, schedule: Q01DX001 (ip), vehicle: saline 99 % of control and 101 % of control | dose: 1.5 grams/kg/injection, schedule: Q01DX009 (ip), vehicle: saline 101 % of control and 109 % of control | dose: 2.0 % in 0.5 ml injection vol, schedule: Q01DX009 (ip), vehicle: water 103 % of control and 95 % of control | dose: 3000.0 mg/kg/injection, schedule: Q01DX001 (ip), vehicle: water 104 % of control | dose: 3000.0 mg/kg/injection, schedule: Q01DX009 (ip), vehicle: saline 95 % of control | dose: 3.0 grams/kg/injection, schedule: Q01DX001 (ip), vehicle: saline 104 % of control and 106 % of control | dose: 3.0 grams/kg/injection, schedule: Q01DX009 (ip), vehicle: saline 96 % of control | dose: 3.1 grams/kg/injection, schedule: Q01DX009 (ip), vehicle: water 101 % of control | dose: 4.0 % in 0.5 ml injection vol, schedule: Q01DX009 (ip), vehicle: water 112 % of control and 94 % of control | dose: 6000.0 mg/kg/injection, schedule: Q01DX001 (ip), vehicle: water 99 % of control | dose: 6.0 grams/kg/injection, schedule: Q01DX001 (ip), vehicle: saline 95 % of control and 98 % of control | dose: 6.0 grams/kg/injection, schedule: Q01DX009 (ip), vehicle: saline 100 % of control and 106 % of control | dose: 6.2 grams/kg/injection, schedule: Q01DX009 (ip), vehicle: water 97 % of control | dose: 6.25 % in 0.5 ml injection vol, schedule: Q01DX009 (ip), vehicle: water 103 % of control | dose: 8.0 % in 0.5 ml injection vol, schedule: Q01DX009 (ip), vehicle: water 103 % of control and 112 % of control | dose: 12000.0 mg/kg/injection, schedule: Q01DX001 (ip), vehicle: water 101 % of control | dose: 12.0 grams/kg/injection, schedule: Q01DX001 (ip), vehicle: saline 104 % of control and 96 % of control | dose: 12.5 % in 0.5 ml injection vol, schedule: Q01DX009 (ip), vehicle: water 110 % of control | dose: 12.5 grams/kg/injection, schedule: Q01DX009 (ip), vehicle: water 108 % of control | dose: 16.0 % in 0.5 ml injection vol, schedule: Q01DX009 (ip), vehicle: water 102 % of control and 105 % of control and 112 % of control | dose: 24.0 grams/kg/injection, schedule: Q01DX001 (ip), vehicle: saline 37 % of control and 39 % of control | dose: 25.0 % in 0.5 ml injection vol, schedule: Q01DX009 (ip), vehicle: water 117 % of control | dose: 32.0 % in 0.5 ml injection vol, schedule: Q01DX009 (ip), vehicle: water 111 % of control and 121 % of control

CC1(C)OCC(C2OC(C)(C)OC2C2COC(C)(C)O2)O1 (stereo not drawn)
inactive: dose: 12.5 mg/kg/injection, schedule: Q01DX009 (ip), vehicle: Klucel (hydroxypropylcellulose) (HPC) 105 % of control | dose: 25.0 mg/kg/injection, schedule: Q01DX009 (ip), vehicle: Klucel (hydroxypropylcellulose) (HPC) 106 % of control | dose: 50.0 mg/kg/injection, schedule: Q01DX009 (ip), vehicle: Klucel (hydroxypropylcellulose) (HPC) 108 % of control | dose: 100.0 mg/kg/injection, schedule: Q01DX009 (ip), vehicle: Klucel (hydroxypropylcellulose) (HPC) 100 % of control

CCC[CH2][Ge]([CH2]CCC)([CH2]CCC)[S][Ge]([CH2]CCC)([CH2]CCC)[CH2]CCC
inactive: [3] 91 % of control | [4] 92 % of control | [8] 97 % of control

COc1ccc(/C=N/NC(=S)NN)cc1
inactive: dose: 60.0 mg/kg/injection, schedule: Q01DX005 (ip), vehicle: saline with Tween-80 99 % of control | dose: 120.0 mg/kg/injection, schedule: Q01DX005 (ip), vehicle: saline with Tween-80 100 % of control | dose: 240.0 mg/kg/injection, schedule: Q01DX005 (ip), vehicle: saline with Tween-80 98 % of control

CC(C)(c1cc(Cl)c(OCCO)c(Cl)c1)c1cc(Cl)c(OCCO)c(Cl)c1
inactive: dose: 100.0 mg/kg/injection, schedule: Q04DX003 (ip), vehicle: saline with Tween-80 100 % of control | dose: 200.0 mg/kg/injection, schedule: Q04DX003 (ip), vehicle: saline with Tween-80 100 % of control | dose: 400.0 mg/kg/injection, schedule: Q04DX003 (ip), vehicle: saline with Tween-80 95 % of control

C/C(=N\NC1=NCCN1)c1cn(C2=NCCN2)nc1C
inactive: dose: 15.0 mg/kg/injection, schedule: Q01DX005 (ip), vehicle: saline 99 % of control | dose: 30.0 mg/kg/injection, schedule: Q01DX005 (ip), vehicle: saline 97 % of control | dose: 60.0 mg/kg/injection, schedule: Q01DX005 (ip), vehicle: saline 102 % of control and 106 % of control

CC(=O)OC1C(=O)C2C(CC=C3CC(O)CC(O)C32C)C2CCC(C(C)C3CC(C)C(C)(C)O3)C12C (stereo not drawn)
inactive: [3] 97 % of control | dose: 100.0 mg/kg/injection, schedule: Q01DX001 (ip), vehicle: Klucel (hydroxypropylcellulose) (HPC) 100 % of control | [4] 101 % of control | dose: 200.0 mg/kg/injection, schedule: Q01DX001 (ip), vehicle: Klucel (hydroxypropylcellulose) (HPC) 97 % of control | [8] 94 % of control | dose: 400.0 mg/kg/injection, schedule: Q01DX001 (ip), vehicle: Klucel (hydroxypropylcellulose) (HPC) 96 % of control

C1CC[N-]CC1.C1CC[N-]CC1.C1CC[N-]CC1.C1CC[N-]CC1.[Cl][Rh][Cl]
inactive: dose: 3.13 mg/kg/injection, schedule: Q01DX009 (ip), vehicle: saline with Tween-80 120 % of control | dose: 4.0 mg/kg/injection, schedule: Q01DX009 (ip), vehicle: saline 118 % of control | dose: 6.25 mg/kg/injection, schedule: Q01DX009 (ip), vehicle: saline with Tween-80 120 % of control and 123 % of control | [1] 120 % of control | [2] 92 % of control
